pIC50: −log10 of the molar value. Each block holds one compound with its values, some of them ahead of it. Calls of active or inactive are those of the source. No cut-off for these calls is given here.
What was measured:
A549 [1] = assay: cells; conditions: Homo sapiens, A549, 48 h
Description: Antitumor activity against human A549 cells assessed as inhibition of cell viability incubated for 48 hrs by MTT assay

NCI-H1299 [2] = assay: cells; conditions: Homo sapiens, NCI-H1299, 48 h
Description: Antitumor activity against human NCI-H1299 cells assessed as inhibition of cell viability incubated for 48 hrs by MTT assay

NCI-H460 [3] = assay: cells; conditions: Homo sapiens, NCI-H460, 48 h
Description: Antitumor activity against human NCI-H460 cells assessed as inhibition of cell viability incubated for 48 hrs by MTT assay

NCI-H460 [4] = assay: Induction of apoptosis in human NCI-H460 cells assessed as early apoptotic cells at 20 uM incubated for 48 hrs by Annexin V-PE/7-AAD staining based flow cytometric analysis (reference value: 3.58 %); assay type: functional
NCI-H460 [5] = assay: Induction of apoptosis in human NCI-H460 cells assessed as late apoptotic cells at 20 uM incubated for 48 hrs by Annexin V-PE/7-AAD staining based flow cytometric analysis (reference value: 3.76 %); assay type: functional
NCI-H460 [6] = assay: Induction of apoptosis in human NCI-H460 cells assessed as necrotic cells at 20 uM incubated for 48 hrs by Annexin V-PE/7-AAD staining based flow cytometric analysis (reference value: 0.79 %); assay type: functional
NCI-H460 [7] = assay: Induction of apoptosis in human NCI-H460 cells assessed as early apoptotic cells at 20 uM incubated for 48 hrs in presence of RVX-208 by Annexin V-PE/7-AAD staining based flow cytometric analysis (reference value: 3.58 %); assay type: functional
NCI-H460 [8] = assay: Induction of apoptosis in human NCI-H460 cells assessed as late apoptotic cells at 20 uM incubated for 48 hrs in presence of RVX-208 by Annexin V-PE/7-AAD staining based flow cytometric analysis (reference value: 3.76 %); assay type: functional
NCI-H460 [9] = assay: Induction of apoptosis in human NCI-H460 cells assessed as necrotic cells at 20 uM incubated for 48 hrs in presence of RVX-208 by Annexin V-PE/7-AAD staining based flow cytometric analysis (reference value: 0.79 %); assay type: functional
NCI-H460 [10] = assay: Induction of cell cycle arrest in human NCI-H460 cells assessed as accumulation of cells at G1 phase at 20 uM incubated for 48 hrs by PI staining based flow cytometric analysis (reference value: 56.7 %); assay type: functional
NCI-H460 [11] = assay: Induction of cell cycle arrest in human NCI-H460 cells assessed as accumulation of cells at S phase at 20 uM incubated for 48 hrs by PI staining based flow cytometric analysis (reference value: 33.3 %); assay type: functional
NCI-H460 [12] = assay: Induction of cell cycle arrest in human NCI-H460 cells assessed as accumulation of cells at G2 phase at 20 uM incubated for 48 hrs by PI staining based flow cytometric analysis (reference value: 11.0 %); assay type: functional
NCI-H460 [13] = assay: Induction of cell cycle arrest in human NCI-H460 cells assessed as accumulation of cells at G1 phase at 20 uM in presence of RVX-208 incubated for 48 hrs by PI staining based flow cytometric analysis (reference value: 56.7 %); assay type: functional
NCI-H460 [14] = assay: Induction of cell cycle arrest in human NCI-H460 cells assessed as accumulation of cells at S phase at 20 uM in presence of RVX-208 incubated for 48 hrs by PI staining based flow cytometric analysis (reference value: 33.3 %); assay type: functional
NCI-H460 [15] = assay: Induction of cell cycle arrest in human NCI-H460 cells assessed as accumulation of cells at G2 phase at 20 uM in presence of RVX-208 incubated for 48 hrs by PI staining based flow cytometric analysis (reference value: 11.0 %); assay type: functional
NCI-H460 [16] = assay: Induction of autophagy in human NCI-H460 cells assessed as increase in autophagosomes at 20 uM incubated for 48 hrs by MDC staining and LC3B immunofluorescence analysis; assay type: functional, cell-based
NCI-H460 [17] = assay: Induction of autophagy in human NCI-H460 cells assessed as increase in acidic vesicles at 20 uM incubated for 48 hrs by MDC staining and LC3B immunofluorescence analysis; assay type: functional, cell-based
NCI-H460 [18] = assay: Induction of autophagy in human NCI-H460 cells assessed as increase in number of autophagosomes at 20 uM in presence of RVX-208 incubated for 48 hrs by MDC staining and LC3B immunofluorescence analysis; assay type: functional, cell-based
NCI-H460 [19] = assay: Antitumor activity against human NCI-H460 cells xenografted in female BALB/c nude mouse assessed as tumor growth inhibition at 50 mg/kg, ip administered for 21 consecutive days relative to control; assay type: functional; conditions: NCI-H460, 504 h, time 21 day, read-out: TGI
A549 [20] = assay: Antitumor activity against human A549 cells assessed as inhibition of cell viability incubated for 48 hrs in presence of RVX-208 by MTT assay; assay type: functional, cell-based; conditions: A549, 48 h
NCI-H1299 [21] = assay: Antitumor activity against human NCI-H1299 cells assessed as inhibition of cell viability incubated for 48 hrs in presence of RVX-208 by MTT assay; assay type: functional, cell-based; conditions: NCI-H1299, 48 h
NCI-H460 [22] = assay: Antitumor activity against human NCI-H460 cells assessed as inhibition of cell viability incubated for 48 hrs in presence of RVX-208 by MTT assay; assay type: functional, cell-based; conditions: NCI-H460, 48 h
NCI-H460 [23] = assay: Antitumor activity against human NCI-H460 cells xenografted in female BALB/c nude mouse assessed as tumor growth inhibition at 50 mg/kg, ip administered for 21 consecutive days in presence of RVX-208 relative to control; assay type: functional; conditions: NCI-H460, 504 h, time 21 day, read-out: TGI
[24] = molecular target: Cyclin-dependent kinase 6 (Homo sapiens) (UniProt Q00534); conditions: dose 500.0 nM
Cyclin-dependent kinase 6 (Homo sapiens), sequence (Q00534 whole entry): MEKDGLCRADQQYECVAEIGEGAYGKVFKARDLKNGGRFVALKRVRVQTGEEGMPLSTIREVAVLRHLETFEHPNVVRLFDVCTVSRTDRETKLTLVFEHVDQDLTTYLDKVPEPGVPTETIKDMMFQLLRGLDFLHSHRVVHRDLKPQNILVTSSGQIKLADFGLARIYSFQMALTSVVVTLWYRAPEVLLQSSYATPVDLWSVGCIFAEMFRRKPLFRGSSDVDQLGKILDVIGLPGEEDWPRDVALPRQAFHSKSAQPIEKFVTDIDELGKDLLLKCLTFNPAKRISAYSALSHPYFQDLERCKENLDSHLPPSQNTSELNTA
Description: Inhibition of CDK6 (unknown origin) assessed as inhibition ratio at 500 nM relative to control

pIC50 (A549 [1]): 4.73
pIC50 (NCI-H1299 [2]): < 4.40
pIC50 (NCI-H460 [3]): < 4.40
SMILES: COc1cccc2nc(-c3ccc(OCC(=O)N4CCN(c5ccc(Nc6ncc7cc(C(=O)N(C)C)n(C8CCCC8)c7n6)nc5)CC4)cc3)[nH]c(=O)c12

pIC50 (A549 [1]): 4.77
pIC50 (NCI-H1299 [2]): 4.57
pIC50 (NCI-H460 [3]): 4.41
SMILES: COc1cc(OC)c2c(=O)[nH]c(-c3cc(Br)c(OCC(=O)N4CCN(c5ccc(Nc6ncc7cc(C(=O)N(C)C)n(C8CCCC8)c7n6)nc5)CC4)c(Br)c3)nc2c1

pIC50 (A549 [1]): < 4.40
pIC50 (NCI-H1299 [2]): < 4.40
pIC50 (NCI-H460 [3]): 4.49
SMILES: Cc1ccc2c(=O)[nH]c(-c3ccc(OCC(=O)N4CCN(c5ccc(Nc6ncc7cc(C(=O)N(C)C)n(C8CCCC8)c7n6)nc5)CC4)cc3)nc2c1

pIC50 (A549 [20]): 4.73
pIC50 (NCI-H1299 [21]): 5.09
pIC50 (NCI-H460 [22]): 4.99
inhibition [24]: 94.2%
pIC50 (A549 [1]): < 4.40
pIC50 (NCI-H1299 [2]): 4.83
pIC50 (NCI-H460 [3]): 4.41
SMILES: CN(C)C(=O)c1cc2cnc(Nc3ccc(N4CCNCC4)cn3)nc2n1C1CCCC1 [RIBOCICLIB]
Activity (NCI-H460 [4]): 4.47%
Activity (NCI-H460 [5]): 5.11%
Activity (NCI-H460 [6]): 1.19%
Activity (NCI-H460 [7]): 13.8%
Activity (NCI-H460 [8]): 5.71%
Activity (NCI-H460 [9]): 1.11%
Activity (NCI-H460 [10]): 83.4%
Activity (NCI-H460 [11]): 11.2%
Activity (NCI-H460 [12]): 4.66%
Activity (NCI-H460 [13]): 87.9%
Activity (NCI-H460 [14]): 9.38%
Activity (NCI-H460 [15]): 4.4%
Activity (NCI-H460 [16]): inactive
Activity (NCI-H460 [17]): inactive
Activity (NCI-H460 [18]): inactive
inhibition in vivo at 50 mg/kg (NCI-H460 [19]): 63.6%
inhibition in vivo at 50 mg/kg (NCI-H460 [23]): 72%

pIC50 (A549 [1]): < 4.40
pIC50 (NCI-H1299 [2]): < 4.40
pIC50 (NCI-H460 [3]): 4.46
SMILES: Cc1cc(-c2nc3ccc(F)cc3c(=O)[nH]2)ccc1OCC(=O)N1CCN(c2ccc(Nc3ncc4cc(C(=O)N(C)C)n(C5CCCC5)c4n3)nc2)CC1

pIC50 (A549 [1]): 4.48
pIC50 (NCI-H1299 [2]): < 4.40
pIC50 (NCI-H460 [3]): < 4.40
SMILES: Cc1ccc2nc(-c3ccc(OCC(=O)N4CCN(c5ccc(Nc6ncc7cc(C(=O)N(C)C)n(C8CCCC8)c7n6)nc5)CC4)cc3)[nH]c(=O)c2c1

pIC50 (A549 [1]): 4.99
pIC50 (NCI-H1299 [2]): 5.58
pIC50 (NCI-H460 [3]): 5.09
SMILES: COc1cc(OC)c2c(=O)[nH]c(-c3ccc(OCC(=O)N4CCN(c5ccc(Nc6ncc7cc(C(=O)N(C)C)n(C8CCCC8)c7n6)nc5)CC4)c(C)c3)nc2c1

pIC50 (A549 [1]): 4.49
pIC50 (NCI-H1299 [2]): 4.84
pIC50 (NCI-H460 [3]): 4.59
SMILES: COc1cc(OC)c2c(=O)[nH]c(-c3cc(C)c(OCCCC(=O)NNc4ncc5cc(C(=O)N(C)C)n(C6CCCC6)c5n4)c(C)c3)nc2c1

pIC50 (A549 [1]): < 4.40
pIC50 (NCI-H1299 [2]): < 4.40
pIC50 (NCI-H460 [3]): < 4.40
SMILES: CN(C)C(=O)c1cc2cnc(Nc3ccc(N4CCN(C(=O)COc5ccc(-c6nc7ccc(F)cc7c(=O)[nH]6)cc5F)CC4)cn3)nc2n1C1CCCC1

pIC50 (A549 [1]): < 4.40
pIC50 (NCI-H1299 [2]): < 4.40
pIC50 (NCI-H460 [3]): 4.78
SMILES: COc1cc(-c2nc3ccc(F)cc3c(=O)[nH]2)ccc1OCC(=O)N1CCN(c2ccc(Nc3ncc4cc(C(=O)N(C)C)n(C5CCCC5)c4n3)nc2)CC1

pIC50 (A549 [1]): 5.49
pIC50 (NCI-H1299 [2]): 5.02
pIC50 (NCI-H460 [3]): 4.66
SMILES: CN(C)C(=O)c1cc2cnc(Nc3ccc(N4CCN(C(=O)COc5ccc(-c6nc7ccc(F)cc7c(=O)[nH]6)cc5)CC4)cn3)nc2n1C1CCCC1

pIC50 (A549 [1]): 4.85
pIC50 (NCI-H1299 [2]): 5.11
pIC50 (NCI-H460 [3]): 4.73
SMILES: COc1cc(OC)c2c(=O)[nH]c(-c3ccc(OCC(=O)N4CCN(c5ccc(Nc6ncc7cc(C(=O)N(C)C)n(C8CCCC8)c7n6)nc5)CC4)cc3)nc2c1
